From US6569893B2, “Amino acid derivatives of triptolide compounds as immune modulators and anticancer agents” (Pharmagenesis, Inc., priority 2001, dated 2003)

What was measured:
[1] = system: Jurkat human T lymphocyte cell line; experiment: Annexin V apoptosis assay after incubation of compound with human serum; assay type: cell-based
Method: (§1) Several compounds of formula I were prepared, as described in the Examples. In preliminary assays, the compounds were evaluated for their capacity to induce apoptosis in cells from the Jurkat human T lymphocyte cell line, after incubation with pooled human serum for 48 hrs at 37° C. (see Example 7). One of the compounds was also analyzed for its capacity to inhibit IL-2 production in Jurkat human T lymphocyte cells (see Example 8). Controls consisted of the compounds incubated in complete tissue culture medium (RPMI 1640 medium plus 5% heat-inactivated fetal calf serum, 1% HEPES, 1% pen/strep, 1% glutamine) rather than human serum.
(§2) The ED50/IC50 values (column 3) are calculated directly from the data in each experiment, and the % conversion values (column 4) are calculated as percent of the ED50 or IC50 value produced by triptolide, incubated in the same plasma (i.e. in the same experiment).
(§3) Pooled human serum was stored in aliquots at −80° C. […]
Test samples (incubated in human serum as described in section A) were prepared and diluted as described in section B, and Jurkat human T lymphocyte cells were prepared and added to wells containing 100 μl of the diluted compounds, also as described in section B. The plates were incubated at 37° C. in a 5% CO2 incubator. […] Cells positive for Annexin V binding were considered to be apoptotic, and the data were calculated as percent apoptotic cells. […]

[2] = system: IL-2 production in Jurkat human T lymphocyte cells; experiment: IL-2 production (inhibition) assay after incubation of compound with human serum; assay type: cell-based
Method: as §1, §2, §3
Test samples, incubated in human serum as described in Example 7A, were diluted to 1 mM in complete tissue culture medium. […] The stored supernatants were analyzed for human IL-2 concentration using the Luminex 100 (Luminex Corporation, Austin, Tex.), Luminex microspheres coupled with anti-IL-2 capture antibody, and fluorochrome-coupled anti-IL-2 detection antibody. The data were expressed as ng/ml of IL-2. […]

[3] = system: Jurkat human T lymphocyte cell line; experiment: Terminal deoxynucleotidyl transferase (TdT, TUNEL) apoptosis assay after incubation of compound with human serum; assay type: cell-based; details: for EC50: Jurkat cells, 24 h, compound pre-incubated 48 hr at 37° C. in pooled human serum, concentration inducing 50% apoptosis, read-out: ED50 (nM) after 48 hr incubation with human serum; for Conversion (relative activity compared to PG490) (%): percent of ED50 relative to triptolide incubated in parallel in human serum (taken as 100%)
Method: as §1, §2
Pooled human serum was stored in aliquots at −80° C. Test compounds were added at 20 mM to thawed human serum in 1.5 ml microfuge tubes and incubated at 37° C. in a water bath for 48 hours. The test samples were placed on ice until dilution for the bioassay. Controls consisted of the compounds incubated in complete tissue culture medium (RPMI 1640 medium plus 5% heat-inactivated fetal calf serum, 1% HEPES, 1% pen/strep, 1% glutamine) rather than human serum.
Test samples were diluted to 1 mM in complete tissue culture medium. Aliquots were placed in microculture plates and serial dilutions were prepared so that the final concentration would encompass the range of 2 to 6,000 nM with half-log increments. Cells from an exponentially expanding culture of the Jurkat human T lymphocyte cell line (#TIB-152 obtained from American Type Culture Collection, Manassas, Va.) were harvested, washed once by centrifugation and dilution in complete tissue culture medium, and diluted to a concentration of 1×10^6 cells/ml. A volume of 100 μl of Jurkat cells (1×10^5 cells) was added to wells containing 100 μl of the diluted compounds, and the plates were incubated at 37° C. in a 5% CO2 incubator. After 24 hours, the plates were centrifuged to pellet the cells, and the cells were washed with PBS. The cells were fixed in paraformaldehyde, washed, treated with ethanol, washed and then incubated with the enzyme terminal deoxynucleotidyl transferase (TdT) and fluorescein labeled-deoxyuridine (dUTP). The process allows 3′ end labeling of DNA molecules which were nicked during the DNA fragmentation phase of apoptosis (terminal deoxynucleotidyl transferase dUTP nick end labeling; TUNEL labeling). The cells were washed, treated with ribonuclease, washed and resuspended in medium containing propidium iodide to distinguish intact apoptotic cells. The contents of the assay wells were individually transferred into test tubes, and apoptosis was analyzed using a FACSCalibur flow cytometer (BD Immunocytometry Systems, San Jose, Calif.). Cells positive for Fl-dUTP were considered to be apoptotic, and the data were calculated as percent apoptotic cells.
For the assays in sections B and C, data were plotted as the concentration of compound incubated in serum versus percent apoptotic cells, and the concentration of compound inducing 50% apoptosis (ED50) was calculated from these dose response curves. The percent conversion of the test compounds to bioactive compound (assumed to be triptolide) was calculated in reference to the result with triptolide incubated in parallel in human serum in the same experiment, as the percent of the ED50 of the compound compared to that for triptolide, which was taken as 100%.

[4] = system: HT-29 human colon cancer cell line tumor xenografts; details: HT-29 xenografts, cited from earlier work

**Q.** With `CC(C)[C@]12O[C@H]1[C@@H]1O[C@]13[C@]1(O[C@H]1C[C@H]1C4=C(CC[C@@]13C)C(=O)OC4)[C@@H]2OC(=O)CC[C@H](N)C(=O)O` [PG661, 14-γ-L-glutamate Ester of Triptolide] as the compound, how does the EC50 ([1]; Jurkat cells, 24 h, compound pre-incubated 48 hr at 37° C. in pooled human serum, read-out: ED50 (nM) after 48 hr incubation with human serum) read?
**A.** Its EC50 is 34700 nM.

**Q.** And the “Conversion (relative activity compared to PG490) (%)” value ([1]; percent of ED50 relative to triptolide incubated in parallel in human serum (taken as 100%))?
**A.** Its value is 0.16%.

**Q.** What about the “Conversion (relative activity compared to PG490) (%)” value ([2]; IL-2 inhibition assay, percent of IC50 relative to triptolide incubated in parallel (taken as 100%)) of the same compound?
**A.** The value was 1.4%.

**Q.** What about the IC50 ([2]; IL-2 inhibition, anti-CD3/PMA-stimulated Jurkat cells, 24 h, compound pre-incubated 48 hr in human serum, 50% decrease in IL-2 concentration) of the same compound?
**A.** The IC50 was 330 nM.

**Q.** Which EC50 ([3]; Homo sapiens, Jurkat) does the source give for `CC(C)[C@]12O[C@H]1[C@@H]1O[C@]13[C@]1(O[C@H]1C[C@H]1C4=C(CC[C@@]13C)C(=O)OC4)[C@@H]2OC(=O)CC[C@@H](NC(=O)OCc1ccccc1)C(=O)OCc1ccccc1` [PG660, Triptolide 14-α-Benzyl-N-benzyloxycarbonyl-D-glutamate Ester] here?
**A.** The EC50 was 1100 nM.

**Q.** And the “Conversion (relative activity compared to PG490) (%)” value [3]?
**A.** Its value is 2.7%.

**Q.** Which EC50 ([3]; Homo sapiens, Jurkat) does the source give for `CC(C)[C@]12O[C@H]1[C@@H]1O[C@]13[C@]1(O[C@H]1C[C@H]1C4=C(CC[C@@]13C)C(=O)OC4)[C@@H]2OC(=O)CC[C@H](NC(=O)OC(C)(C)C)C(=O)OC(C)(C)C` [PG658, Triptolide 14-N-t-Butoxycarbonyl-α-t-butyl-L-glutamate Ester] here?
**A.** Its EC50 is 750 nM.

**Q.** What about the “Conversion (relative activity compared to PG490) (%)” value [3] of the same compound?
**A.** The value was 4.0%.

**Q.** With `CC(C)C12OC1C1OC13C1(C)CCC4=C(COC4=O)C1CC1OC13C2OC(=O)CCC(=O)O` (stereo not drawn) [14-succinate derivative of triptolide] as the compound, how does the Tumor regression [4] read?
**A.** Its Tumor regression is “induced tumor regression”.

**Q.** What about the Tumor growth inhibition ([4]; in comparison to 5-FU and CPT-11) of the same compound?
**A.** The Tumor growth inhibition was “strongly inhibited tumor growth, to a significantly greater degree than 5-FU and CPT-11”.

**Q.** For `CC(C)[C@]12O[C@H]1[C@@H]1O[C@]13[C@]1(O[C@H]1C[C@H]1C4=C(CC[C@@]13C)C(=O)OC4)[C@@H]2OC(=O)C(CCC(=O)OCc1ccccc1)NC(=O)OCc1ccccc1` (mixture of isomers) [PG657, Triptolide 14-γ-Benzyl-N-benzyloxycarbonyl-(L)-glutamate Ester, mixture with D-isomer], which EC50 [3] is on record?
**A.** Its EC50 is 300 nM.

**Q.** What about the “Conversion (relative activity compared to PG490) (%)” value [3] of the same compound?
**A.** Its value is 10%.
